Laboratory results reported in article PMC6079455, “Discovery of Novel Caeridins from the Skin Secretion of the Australian White's Tree Frog, Litoria caerulea” (International Journal of Genomics, 2018).
Ends that are not written are not given here.

How the values were obtained:
S. aureus = experiment: Membrane permeability on S. aureus (SYTOX Green); format: cell-based, Staphylococcus aureus; details: 2 h, 37°C, 1 × 10^8 CFU/ml, relative to 70% isopropanol
Method: The cell membrane permeability of S. aureus was tested with SYTOX Green Nucleic Acid Stain (Life Technologies, Carlsbad, CA, USA). The log-phase S. aureus was pelleted and suspended in 5% TSB in 0.85% NaCl solution to achieve 1 × 10^8 CFU/ml cells which was then treated with peptide solutions at 37°C for 2 h. The maximum membrane-compromised S. aureus was produced by 70% isopropanol treatment. Subsequently, cells were mixed with 5 μM SYTOX Green stain and incubated in the dark for 10 min. The fluorescence was measured in a 37°C Synergy HT plate reader (Biolise BioTek ELx808, Winooski, VT, USA) at excitation and emission wavelengths of 480 nm and 528 nm, respectively. The membrane permeability was calculated as (1) Membrane permeability%=F−F0/F1−F0×100%, where F represents the processed fluorescence intensity with peptide treatments, F0 represents the processed fluorescence intensity of untreated S. aureus, and F1 represents the processed fluorescence intensity in the maximum membrane-compromised S. aureus (70% isopropanol-treated). The fluorescence intensities of background were subtracted prior to calculation.

[1] = test system: human microvascular endothelial cell line HMEC-1; experiment: Membrane permeabilisation of HMEC-1 (LDH release); format: cell-based; details: 24 h; for LDH release from HMEC-1: relative to lysis buffer
Method: The membrane permeabilisation of the human microvascular endothelial cell line, HMEC-1, was evaluated using the Pierce LDH Cytotoxicity Assay Kit (Thermo Fisher Scientific, San Francisco, CA, USA). HMEC-1 cells were cultured in MCDB-131 medium (Life Technology, Paisley, UK) with 10% FBS, 10 ng/ml epidermal growth factor (EGF) (Life Technology, Paisley, UK), 10 mM L-glutamine (Life Technology, Paisley, UK), and 1% penicillin-streptomycin (Sigma-Aldrich, St. Louise, MO, USA), at 37°C under 5% CO2. Cells were seeded in a 96-well plate at 5000 cells per well and cultured overnight to 80% confluency. Then, the cells were treated with different peptide solutions of gradient concentrations from 10^−7 M to 10^−4 M for 24 h at 37°C, 5% CO2, and H2O-treated cells were made as the spontaneous LDH release control. Lysis buffer was added to cells and incubated for 45 min at 37°C, 5% CO2, to produce the lysis buffer-treated cells which were referred to as maximum LDH release control. Then 50 μl of each sample supernatant was transferred to a 96-well flat-bottom plate in triplicate wells, to which 50 μl of reaction mixture was added, incubated, and protected from light at room temperature for 30 min. After addition of 50 μl Stop Solution to each sample well and removal of bubbles present in sample wells, the absorbance at 490 nm and 680 nm was measured. The absorbance values at 680 nm were subtracted from the absorbance values at 490 nm before calculation of the level of LDH release (cytotoxicity). The level of LDH release was calculated as (2) LDH release %=L−L0/L1−L0×100%, where L refers to sample-treated LDH activity, L0 to spontaneous (H2O-treated) LDH activity, and L1 to maximum (lysis buffer-treated) LDH activity.
Data analysis was performed using one-way analysis of variance followed by Dunnett's multiple comparison tests with maximum LDH release control in GraphPad Prism (Version 6.0; GraphPad Software Inc., San Diego, CA, USA).

**Q.** For GLFDIVGKLLGGLGL-NH2 [Caeridin-a1], which “membrane permeability of S. aureus at MBC” value (S. aureus; peptide at its MBC) is on record?
**A.** Its value is “massively compromised”.

**Q.** What about the “membrane permeability of S. aureus at MIC” value (S. aureus; peptide at its MIC) of the same substance?
**A.** Its value is “remained intact”.

**Q.** And the “LDH release from HMEC-1” value ([1]; 10 μM)?
**A.** Its value is “approximately 10%”.

**Q.** And the “LDH release from HMEC-1” value ([1]; 100 μM)?
**A.** Its value is “about 50%”.

**Q.** And the “cytotoxicity to HMEC-1 cells” value ([1]; 100 μM, LDH release)?
**A.** Its value is “significant cytotoxicity”.
